The record followed here is US12195432B2, “2-arylbenzimidazoles as Ppargc1a activators for treating neurodegenerative diseases” (THE BOARD OF TRUSTEES OF THE LELAND STANFORD JUNIOR …, priority 2018, dated 2025).

Series [1] deals with TNF-α production by BV2 cells or PBMC. In words: Cellular assay to measure TNF-α inhibition (LPS stimulation, ELISA). It is filed as cell-based, murine or human. Particulars: 100 ng/ml LPS over 24 hours, relative to DMSO vehicle, compound concentration and cell type not given. The source says:
Oxidative metabolism exerts an anti-inflammatory effect on myeloid cell phenotype (O'Neill L A, Front Immunol. 2014) and Ppargc1a can promote this energy metabolic pathway (Spiegelman B M, Novartis Found Symp. 2007). Thus, pharmacological activation of Ppargc1a would be expected to inhibit the inflammatory response of myeloid cells. This phenomenon can be measured in cultures by a TNF-α inhibition assay.
Cellular Assay Protocol to Measure TNF-α Inhibition
The murine myeloid cell line BV2 or human peripheral blood mononuclear cells (PBMC) are cultured in RPMI 1640 media (Cat #11875119, Gibco) supplemented with 10% fetal bovine serum and 1% L-glutamine 1% penicillin. These cells are then stimulated with 100 ng/ml of lipopolysaccharide (LPS, O111:B4, Cat #L2630, Sigma) over 24 hours. LPS stimulation results in the secretion of the inflammatory cytokine TNF-α by BV2 cells or PBMC, which can be quantified by ELISA in culture supernatant samples per manufacturer's protocol (Cat #558273 for BV2 and Cat #558299 for PBMC, BD Biosciences). To determine whether example compounds 1-78 inhibit TNF-α production by BV2 cells or PBMC, the cells were cultured in the presence of the compounds at different concentrations, and fold reduction in TNF-α production relative to TNF-α production by the same cells cultured in the presence of dimethylsulfoxide (as vehicle control) was determined.

The nature of series [2]: Pharmacokinetic study (mouse): API levels in plasma, brain and liver. The format is in vivo. Particulars: mice, prodrug 10 mg/kg p.o., 0.5 h-4 h, API = example 1 compound; for plasma levels of API: FIG. 1; for brain levels of API: FIG. 2; for liver levels of API: FIG. 3. On the procedure: Pharmacokinetic studies (mouse) were performed on the example 1, 6-P, 8-P, and 11-P compounds of the present invention. The example 1, 6-P, 8-P, and 11-P compounds were dosed in mice at 10 mg/kg p.o. (n=2). Plasma, brain, and liver were harvested at 0.5 h, 1 h, 2 h, and 4 h. The samples were analyzed by LCMS to determine levels of the example 1 compound, i.e., the active pharmaceutical ingredient (API) for prodrug examples 6-P, 8-P, and 11-P.

For a further series, the system named is Caco-2 cells. The experiment in a line: Caco-2 permeability assay. It is filed as in vitro ADME. Particulars: 10 μM, pH 7.4, 2 h; for Caco2 A → B: apparent permeability A→B, without elacridar. On the procedure:
Caco-2 Permeability Assay Protocol
The mixture was analyzed by LC-MS/MS.

On to `CC(C)(C)c1ccc(-c2nc3ccccc3[nH]2)cc1` [Example 1, 2-(4-(tert-Butyl)phenyl)-1H-benzo[d]imidazole], for which, in series [1], the “TNFα Inhibition” value is given as “A (A = >80% inh.)”. For `CC(C)(C)c1ccc(-c2nc3ccccc3n2COC(=O)CCC(=O)O)cc1` [Example 6-P, 4-((2-(4-(tert-Butyl)phenyl)-1H-benzo[d]imidazol-1-yl)methoxy)-4-oxobutanoic acid], in series [2], the “plasma levels of API” value is given as “measurable amounts”, the “brain levels of API” value is on record as “measurable amounts” and the “liver levels of API” value is “measurable amounts”. `Clc1ccc(-c2nc3ccccc3[nH]2)cc1` [Example 8, 2-(4-Chlorophenyl)-1H-benzo[d]imidazole]: the “TNFα Inhibition” value in series [1] is on record as “C (C = <50% inh.)”.

As for `CC(C)(C)c1ccc(-c2nc3ccccc3n2COC(=O)c2ccc(CN)cc2)cc1.Cl` [Example 8-P, (4-(((2-(4-(tert-butyl)phenyl)-1H-benzo[d]imidazol-1-yl)methoxy)carbonyl)-phenyl)methylammonium hydrochloride], in series [2], the “plasma levels of API” value is recorded as “measurable amounts”, the “brain levels of API” value is “measurable amounts” and the “liver levels of API” value is recorded as “measurable amounts”. With `CC(C)(C)c1ccc(-c2nc3ccccc3n2COP(=O)([O-])[O-])cc1.[Na+].[Na+]` [Example 11-P, Disodium ((2-(4-(tert-butyl)phenyl)-1H-benzo[d]imidazol-1-yl)methyl) phosphate], in series [2], the “plasma levels of API” value is recorded as “measurable amounts”, the “brain levels of API” value is “measurable amounts” and the “liver levels of API” value is “measurable amounts”. As for `c1ccc(-c2nc3ccccc3[nH]2)cc1` [Example 14, 2-(Phenyl)-1H-benzo[d]imidazole], the “TNFα Inhibition” value in series [1] was “C (C = <50% inh.)”.

`CC(C)(C)c1ccc(-c2nc3cc(C(F)(F)F)ccc3[nH]2)cc1` [Example 42, (4-tert-Butylphenyl)-5-(trifluoromethyl)-1H-benzo[d]imidazole]: the “Caco2 B → A” value in the series with Caco-2 cells (apparent permeability B→A) was 1.2 nm/s.

For the compound `CC(C)(C)c1cccc(-c2nc3ccccc3[nH]2)c1` [Example 58, 2-(3-tert-Butylphenyl)-1H-benzo[d]imidazole], the “Caco2 A → B” value with Caco-2 cells is 21 nm/s. On the same count and under the same terms, the value for `CC(C)(C)c1ccc(-c2nc3cc(C(N)=O)ccc3[nH]2)cc1` [Example 75, 2-(4-tert-Butylphenyl)-1H-benzo[d]imidazol-5-carboxamide] was 16 nm/s.
